Active and inactive are the calls of the source. How the calls were made is not given here.
Columns and labels:
[1] = tested on: S. cerevisiae vps1Δ mutant growth inhibition; assay: vps1Δ single mutant yeast growth suppression – S. cerevisiae, background strain comparison, dose response (AID 790)
[2] = as above; settings: S. cerevisiae vps1Δ mutant growth inhibition; measured here: background strain growth inhibition

Compound	IC50 [1]	IC50 [2] [µM]
COc1ccc2nc(NCCCNC(=O)c3cc(OC)c(OC)c(OC)c3)c(C#N)cc2c1	> 10 µM (inactive)	> 10
CC1CN(CC(O)COc2ccc(C(C)C)cc2)CC(C)O1 (stereo unspecified)	> 10 µM (inactive)	> 10
CSc1ncccc1C(=O)OCC(=O)N1CCOCC1	> 10 µM (inactive)	> 10
O=C1CN(C(=O)CSc2nnc(-c3ccccc3)n2Cc2ccc3c(c2)OCO3)c2ccccc2N1	> 10 µM (inactive)	> 10
CCOC(=O)c1c(CN2CCCCC2C)oc2ccc(OC)cc12 (stereo unspecified)	> 10 µM (inactive)	> 10
O=C1OCC2=C1C(c1ccc(F)cc1)Sc1ccccc1N2 (stereo unspecified)	14.4 µM	> 10
Cc1ccc(C(=O)c2c(NC(=O)c3ccncc3)sc3c2CCCC3)cc1	> 10 µM (inactive)	> 10
CCOc1ccc(-c2[nH]ncc2Oc2ccccc2OCC)c(O)c1	23.7 µM (inactive)	16
CC(C)Oc1ccc(/C(O)=C2/C(=O)C(=O)N(CCN(C)C)C2c2ccco2)cc1 (stereo unspecified)	> 10 µM (inactive)	> 10
CC(=O)Nc1ccccc1NS(=O)(=O)c1ccc(Cl)cc1	> 10 µM (inactive)	> 10
COc1ccc2oc(=O)c(-c3nnc(NCc4ccco4)s3)cc2c1	> 10 µM (inactive)	> 10
O=C(NC1CCCC1)C(c1ccsc1)N(C(=O)Cc1cccs1)c1ccc(F)cc1 (stereo unspecified)	> 10 µM (inactive)	> 10
COCCCNc1ccnc2c(Cl)cccc12	> 10 µM (inactive)	> 10
COC(=O)C1=CN(CCCN2CCCC2=O)C=C(C(=O)OC)C1c1ccccc1C(F)(F)F	> 10 µM (inactive)	> 10
Nc1cc(N)c(OCC(F)(F)F)cc1OCC(F)(F)F	> 10 µM (inactive)	> 10
COc1ccccc1N1CCN(CC(O)c2ccc3cc[nH]c3c2)CC1 (stereo unspecified)	> 10 µM (inactive)	> 10
Cc1ccc(C(=O)OCn2ncc(Cl)c(Cl)c2=O)cc1	4.06 µM	4.62
N#CC1=C2SCC(O)(c3ccccc3)N2C(=O)CC1c1ccccc1 (stereo unspecified)	> 10 µM (inactive)	> 10
CCCCCOc1ccc(CN2CCOCC2)cc1Cl	> 10 µM (inactive)	> 10
O=C(CCl)c1ccc(Cc2ncc(C(F)(F)F)cc2Cl)s1	9.7 µM (inactive)	8.68

Compound	IC50 [1]	IC50 [2] [µM]
O=C(Nc1cc(C(F)(F)F)ccc1-n1cncn1)c1ccc(-c2ccccc2)cc1	> 10 µM (inactive)	> 10
O=C(NCc1ccc2c(c1)OCO2)c1ccc(CS(=O)(=O)c2cccc(C(F)(F)F)c2)o1	> 10 µM (inactive)	> 10
COc1cccc(NC(=O)C2CCCN2C(=O)OCc2ccccc2)c1 (stereo unspecified)	> 10 µM (inactive)	> 10
N#Cc1cn(-c2ccccc2)nc1-c1cc2ccccc2oc1=O	> 10 µM (inactive)	> 10
Cc1ccc(S(=O)(=O)N2CCN(C3CCN(Cc4ccccc4)CC3)CC2)cc1	> 10 µM (inactive)	> 10
O=C(Nc1nnc(-c2ccc(Cl)cc2)o1)c1ccccc1Br	2.37 µM	13.1
O=C(COc1ccc(Br)cc1F)NC1CCN(Cc2ccccc2)CC1	> 10 µM (inactive)	> 10
Cc1ccc(C)c(C(=O)NCc2ccncc2)c1	> 10 µM (inactive)	> 10
C/C(=N\N=C(/N)SC1CC(=O)N(c2ccc(Cl)c(Cl)c2)C1=O)c1cccs1 (stereo unspecified)	4.46 µM	5.98
COc1ccc(CN(C(=O)Cc2cccs2)C(C(=O)NC2CCCC2)c2ccncc2)cc1 (stereo unspecified)	> 10 µM (inactive)	> 10
OC(Cn1ccnc1)c1ccc(Cl)cc1Cl (stereo unspecified)	> 10 µM (inactive)	> 10
O=[N+]([O-])c1ccc(N2CCN(S(=O)(=O)c3ccc(Cl)cc3)CC2)cc1NCc1cccnc1	> 10 µM (inactive)	> 10
CCOC(=O)Cc1c(C)c2ccc(N(CC)CC)cc2oc1=O	> 10 µM (inactive)	> 10
Cc1ccc(N2CCN(S(=O)(=O)N3CCCCCC3)CC2)cc1Cl	> 10 µM (inactive)	> 10
Cc1ccc(OCC(O)CN2CCN(Cc3ccc4c(c3)OCO4)CC2)c(C)c1 (stereo unspecified)	> 10 µM (inactive)	> 10
Cc1ccc(S(=O)(=O)c2c(C)nn(C(C)(C)C)c2OC(=O)c2ccc(Br)o2)cc1	> 10 µM (inactive)	> 10
CCSc1nnc(NC(=O)NCC(F)(F)F)s1	> 10 µM (inactive)	> 10
N#CC1=C(N)NC(SCc2ccc(F)cc2)=C(C#N)C12CCCCC2	2.12 µM	16.3
Fc1ccc(Cn2nnc(-c3ccc(CN4CCOCC4)cc3)n2)cc1	> 10 µM (inactive)	> 10
COc1cccc(OCCCCN2CC(C)OC(C)C2)c1 (stereo unspecified)	> 10 µM (inactive)	> 10

Compound	IC50 [1]	IC50 [2] [µM]
Cc1cc(C)nc(N/N=C/C(Cl)=C/c2ccccc2)n1	> 10 µM (inactive)	> 10
Cc1ccc(C2(C(F)(F)F)N=C3Sc4cc(C)cc(C)c4N3C(=O)N2)cc1 (stereo unspecified)	1.37 µM (inactive)	1.08
CCCC(=O)N1CCN(c2ccc(NC(=O)c3cc4ccccc4o3)cc2Cl)CC1	> 10 µM (inactive)	19.2
COc1ccc(-c2cc(N)n(S(=O)(=O)c3c(F)c(F)c(F)c(F)c3F)n2)cc1OC	2.29 µM (inactive)	1.08
Clc1cc(Br)ccc1OCCOCCN1CCOCC1	> 10 µM (inactive)	> 10
COc1ccc(C2C3=C(CCCC3=O)Nc3nc(-c4cc(OC)c(OC)c(OC)c4)nn32)cc1OC (stereo unspecified)	> 10 µM (inactive)	> 10
CCOC(=O)c1ccc(NC(=O)c2cn(-c3ccccc3)nc2-c2ccncc2)cc1	> 10 µM (inactive)	11.5
Cc1cc(C)c2c(c1)/C(=C/C(=O)c1ccc(Br)s1)C(=O)N2	3.71 µM (inactive)	1.42
O=[N+]([O-])c1ccc(N/N=C/c2c[nH]c3ccccc23)c(S(=O)(=O)Nc2ccc(Cl)cc2)c1	2.47 µM	2.5
CCN(CC)CCn1nc(C)nc1-c1ccccc1O	> 10 µM (inactive)	> 10
CN1/C(=C/C2CC(=O)NC2=O)C(C)(C)c2ccccc21 (stereo unspecified)	> 10 µM (inactive)	> 10
O=C(Nc1ccccc1)C1=C(O)CC(c2ccco2)CC1=Nc1ccccc1 (stereo unspecified)	> 10 µM (inactive)	> 10
O=C(O)Cn1c(SCCOc2ccccc2F)nc2ccccc21	> 10 µM (inactive)	> 10
Clc1ccc(-c2cnc(Oc3ccccc3)nc2)cc1	> 10 µM (inactive)	> 10
O=C(NC1CCN(Cc2ccccc2)CC1)C1COc2ccccc2O1 (stereo unspecified)	> 10 µM (inactive)	> 10
Cc1nnc(-c2cccc(Br)c2)c2cn(-c3ccccc3Cl)nc12	2.01 µM	25.9
CCOC(=O)N1CCN(c2ccc(S(=O)(=O)N(Cc3ccccc3)Cc3ccccc3)cn2)CC1	> 10 µM (inactive)	> 10
CC1CN(CCCCOc2ccc(C(C)C)cc2)CC(C)O1 (stereo unspecified)	> 10 µM (inactive)	> 10
